Results on 4 compounds are retold here after ChEMBL document CHEMBL2046341, “α-glucosidase inhibitors from Brickellia cavanillesii” (J Nat Prod, 2012).

A short description of assay [1]: Competitive inhibition of Saccharomyces cerevisiae alpha-glucosidase using p-nitrophenyl-alpha-D-glucopyranoside as substrate by Lineweaver-Burk plot and Dixon plot analysis.
Assay [2] can be described thus: Inhibition of Saccharomyces cerevisiae alpha-glucosidase using p-nitrophenyl-alpha-D-glucopyranoside as substrate preincubated for 5 mins prior to substrate addition measured after 35 mins by spectrophotocolorimetric assay.
Assay [3] in a line: Mixed type inhibition of Saccharomyces cerevisiae alpha-glucosidase using p-nitrophenyl-alpha-D-glucopyranoside as substrate by Lineweaver-Burk plot and Dixon plot analysis.
Assay [4] is described as follows: Noncompetitive inhibition of Saccharomyces cerevisiae alpha-glucosidase using p-nitrophenyl-alpha-D-glucopyranoside as substrate by Lineweaver-Burk plot and Dixon plot analysis.

Turning to `C[C@H]1O[C@H](O[C@H]2[C@H](O)[C@@H](O)[C@@H](O[C@H]3[C@H](O)[C@@H](O)C(O)O[C@@H]3CO)O[C@@H]2CO)[C@H](O)[C@@H](O)[C@@H]1N[C@H]1C=C(CO)[C@@H](O)[C@H](O)[C@H]1O` (stereo partly drawn) [ACARBOSE], the Ki (usually a dissociation constant, usually derived from enzyme kinetics or from competition with a known ligand) in assay [1] was 260 µM. For the same compound, the IC50 (as a rule, the concentration that inhibits the measured activity by half) in assay [2] is 340 µM.

In assay [3], `C=C1C(=O)O[C@@H]2C[C@@H](C)/C=C\C(=O)[C@](C)(O)[C@H](OC(C)=O)[C@@H](OC(=O)/C(C)=C/C)[C@@H]12` [CALEIN C] had an inhibition constant Ki of 410 µM. This compound gave a half-maximal inhibitory concentration (IC50) in assay [2] of 280 µM.

The compound `COc1cc(-c2oc3cc(O)cc(O)c3c(=O)c2O)ccc1O` [ISORHAMNETIN] displayed a Ki in assay [3] of 1910 µM. In addition, in assay [2], the half-inhibitory concentration (IC50) was 160 µM.

As to `CC1(C)C=Cc2c(ccc(C(=O)CO)c2O)O1`, the Ki in assay [4] came to 130 µM. This compound came in with an IC50 in assay [2] of 420 µM.
